The supplement of paper PMC11208160

test: recombinant UMI read abundance after kanamycin selection (control-corrected) (log10(CPM+1)); higher = more efficient recombination; extreme values may be limits of the assay; sequences stand for … in AGTGCAGAGAAAATCGGCCAGTTTTCTCTGCCTGCAGTCCGCATGCCGTGGGACCCCTTGGGTTCTAACCTGTTGCCTAGATTTATGCAGCGGACTGCCTTTCTCCCAAAGTGATAAACCGG…AGGTTGGTTTCACT; site = the 11-nt donor
Summary of the method: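 Sequencing read counts were converted to CPM, averaged over two replicates and scaled by control-derived factors. Results are given as log10(CPM+1). The reads covered the donor–target junction of recombinant UMIs from a pooled Escherichia coli screen of donor and donor-binding-loop pairs for the IS621 bridge recombinase.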
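Further: IS621 bridge recombinase in Escherichia coli cells against a fixed T5 target plasmid.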

Row | Sequence | recombinant UMI read abundance (log10)
1 | GCGAAGCCATGGACCGGTTTTCCCGGTAATCCGTATTTGGG (site GCGGAGCCTCC) | 0.0363
2 | GCGAAGCCATGGACCGGTTTTCCCGGTAATCCGTATTTGGG (site GCGTAGCCTCC) | 0.0104
3 | GCGAAGCCATGGACCGGTTTTCCCGGTAATCCGTATTTGGG (site GCTAAGCCTCC) | 0.0212
4 | GCGAAGCCATGGACCGGTTTTCCCGGTAATCCGTATTTGGG (site GGGAAGCCTCC) | 0.0306
5 | GCGAAGCCATGGACCGGTTTTCCCGGTAATCCGTATTTGGG (site GTGAAGCCTCC) | 0.0355
6 | GCGAAGCCATGGACCGGTTTTCCCGGTAATCCGTATTTGGG (site TCGAAGCCTCC) | 0.0116
7 | GCGAATCCATGGACCGGTTTTCCCGGTAATCCGTATTTGGG (site GCGAAACCTCC) | 0.0049
8 | GCGAATCCATGGACCGGTTTTCCCGGTAATCCGTATTTGGG (site GCGAACCCTCC) | 0
9 | GCGAATCCATGGACCGGTTTTCCCGGTAATCCGTATTTGGG (site GCGAAGCCTCC) | 0.23
10 | GCGAATCCATGGACCGGTTTTCCCGGTAATCCGTATTTGGG (site GCGAATCCTCC) | 0.00555
11 | GCGACGCCATGGACCGGTTTTCCCGGTAATCCGTATTTGTC (site GCGACGCCTGA) | 2.1
12 | GCGAGAACATGGACCGGTTTTCCCGGTAATCCGTATTTGCT (site GCGAAAACTAG) | 1.35
13 | GCGAGAACATGGACCGGTTTTCCCGGTAATCCGTATTTGCT (site GCGACAACTAG) | 0
14 | GCGAGAACATGGACCGGTTTTCCCGGTAATCCGTATTTGCT (site GCGAGAACTAG) | 2.24
15 | GCGAGAACATGGACCGGTTTTCCCGGTAATCCGTATTTGCT (site GCGATAACTAG) | 0.492
16 | GCGAGCTCATGGACCGGTTTTCCCGGTAATCCGTATTTGGG (site GCGAGCTCTCC) | 0.714
17 | GCGATCCCATGGACCGGTTTTCCCGGTAATCCGTATTTGCG (site GCGATCCCTCG) | 1.71
18 | GCGCCCTCATGGACCGGTTTTCCCGGTAATCCGTATTTGGC (site TGAAGTCCTCT) | 0.0178
19 | GCGCCGACATGGACCGGTTTTCCCGGTAATCCGTATTTGAC (site GCGCCGACTGT) | 2.07
20 | GCGCGAACATGGACCGGTTTTCCCGGTAATCCGTATTTGAC (site GCGCGAACTGT) | 1.77
21 | GCGCGCGCATGGACCGGTTTTCCCGGTAATCCGTATTTGGA (site GCGCGCGCTTC) | 0.527
22 | GCGCGGGCATGGACCGGTTTTCCCGGTAATCCGTATTTGGC (site GCGCGGGCTGC) | 2.54
23 | GCGCTAACATGGACCGGTTTTCCCGGTAATCCGTATTTGAC (site GCGCTAACTGT) | 2.61
24 | GCGCTAGCATGGACCGGTTTTCCCGGTAATCCGTATTTGCA (site GCGCTAGCTTG) | 2.2
25 | GCGCTGGCATGGACCGGTTTTCCCGGTAATCCGTATTTGCG (site GCGCTGGCTCG) | 0.891

Row | Sequence | recombinant UMI read abundance (log10)
26 | GCGGAATCATGGACCGGTTTTCCCGGTAATCCGTATTTGTT (site GCGGAATCTAA) | 2.76
27 | GCGGAGCCATGGACCGGTTTTCCCGGTAATCCGTATTTGGG (site GCGAAGCCTCC) | 0.0138
28 | GCGGAGCCATGGACCGGTTTTCCCGGTAATCCGTATTTGGG (site GCGCAGCCTCC) | 0
29 | GCGGAGCCATGGACCGGTTTTCCCGGTAATCCGTATTTGGG (site GCGGAGCCTCC) | 0.0323
30 | GCGGAGCCATGGACCGGTTTTCCCGGTAATCCGTATTTGGG (site GCGTAGCCTCC) | 0.0221
31 | GCGGAGGCATGGACCGGTTTTCCCGGTAATCCGTATTTGAG (site GCGGAGGCTCT) | 1.89
32 | GCGGCCCCATGGACCGGTTTTCCCGGTAATCCGTATTTGAT (site GCGGCCCCTAT) | 0.00951
33 | GCGGCGACATGGACCGGTTTTCCCGGTAATCCGTATTTGGC (site GCGGCGACTGC) | 1.99
34 | GCGGGTGCATGGACCGGTTTTCCCGGTAATCCGTATTTGTA (site GCGGGTGCTTA) | 2.6
35 | GCGTAATCATGGACCGGTTTTCCCGGTAATCCGTATTTGCC (site GCGTAATCTGG) | 2.11
36 | GCGTACGCATGGACCGGTTTTCCCGGTAATCCGTATTTGTT (site GCGTACGCTAA) | 1.84
37 | GCGTAGCCATGGACCGGTTTTCCCGGTAATCCGTATTTGGG (site GCGAAGCCTCC) | 0.00823
38 | GCGTAGCCATGGACCGGTTTTCCCGGTAATCCGTATTTGGG (site GCGCAGCCTCC) | 0.00818
39 | GCGTAGCCATGGACCGGTTTTCCCGGTAATCCGTATTTGGG (site GCGGAGCCTCC) | 0.0167
40 | GCGTAGCCATGGACCGGTTTTCCCGGTAATCCGTATTTGGG (site GCGTAGCCTCC) | 0.0103
41 | GCGTCACCATGGACCGGTTTTCCCGGTAATCCGTATTTGTT (site GCGTCACCTAA) | 0.0187
42 | GCGTTTACATGGACCGGTTTTCCCGGTAATCCGTATTTGCT (site ACGTTTACTAG) | 1.3
43 | GCGTTTACATGGACCGGTTTTCCCGGTAATCCGTATTTGCT (site CCGTTTACTAG) | 0
44 | GCGTTTACATGGACCGGTTTTCCCGGTAATCCGTATTTGCT (site GCGTTTACTAG) | 1.6
45 | GCGTTTACATGGACCGGTTTTCCCGGTAATCCGTATTTGCT (site TCGTTTACTAG) | 0.474
46 | GCTAAAACATGGACCGGTTTTCCCGGTAATCCGTATTTGCT (site GCAAAAACTAG) | 0
47 | GCTAAAACATGGACCGGTTTTCCCGGTAATCCGTATTTGCT (site GCCAAAACTAG) | 0
48 | GCTAAAACATGGACCGGTTTTCCCGGTAATCCGTATTTGCT (site GCGAAAACTAG) | 1.28
49 | GCTAAAACATGGACCGGTTTTCCCGGTAATCCGTATTTGCT (site GCTAAAACTAG) | 1.01
50 | GCTAACTCATGGACCGGTTTTCCCGGTAATCCGTATTTGGG (site GCTAACTCTCC) | 0.0314

Row | Sequence | recombinant UMI read abundance (log10)
51 | GCTAAGCCATGGACCGGTTTTCCCGGTAATCCGTATTTGGG (site GCAAAGCCTCC) | 0.00437
52 | GCTAAGCCATGGACCGGTTTTCCCGGTAATCCGTATTTGGG (site GCCAAGCCTCC) | 0.0229
53 | GCTAAGCCATGGACCGGTTTTCCCGGTAATCCGTATTTGGG (site GCGAAGCCTCC) | 0.00564
54 | GCTAAGCCATGGACCGGTTTTCCCGGTAATCCGTATTTGGG (site GCTAAGCCTCC) | 0.0172
55 | GCTAAGTCATGGACCGGTTTTCCCGGTAATCCGTATTTGTG (site GCTAAGTCTCA) | 2.06
56 | GCTACAGCATGGACCGGTTTTCCCGGTAATCCGTATTTGCC (site GCTACAGCTGG) | 1.42
57 | GCTACAGCATGGACCGGTTTTCCCGGTAATCCGTATTTGCC (site GCTACCGCTGG) | 0
58 | GCTACAGCATGGACCGGTTTTCCCGGTAATCCGTATTTGCC (site GCTACGGCTGG) | 0.477
59 | GCTACAGCATGGACCGGTTTTCCCGGTAATCCGTATTTGCC (site GCTACTGCTGG) | 0
60 | GCTACCCCATGGACCGGTTTTCCCGGTAATCCGTATTTGGA (site GCTACCCCTTC) | 0.0342
61 | GCTACCGCATGGACCGGTTTTCCCGGTAATCCGTATTTGCC (site GCTACAGCTGG) | 0
62 | GCTACCGCATGGACCGGTTTTCCCGGTAATCCGTATTTGCC (site GCTACCGCTGG) | 1.61
63 | GCTACCGCATGGACCGGTTTTCCCGGTAATCCGTATTTGCC (site GCTACGGCTGG) | 0
64 | GCTACCGCATGGACCGGTTTTCCCGGTAATCCGTATTTGCC (site GCTACTGCTGG) | 0
65 | GCTACGTCATGGACCGGTTTTCCCGGTAATCCGTATTTGTT (site GATACGTCTAA) | 0.00849
66 | GCTACGTCATGGACCGGTTTTCCCGGTAATCCGTATTTGTT (site GCTACGTCTAA) | 0.808
67 | GCTACGTCATGGACCGGTTTTCCCGGTAATCCGTATTTGTT (site GGTACGTCTAA) | 0.0111
68 | GCTACGTCATGGACCGGTTTTCCCGGTAATCCGTATTTGTT (site GTTACGTCTAA) | 0.0153
69 | GCTACTGCATGGACCGGTTTTCCCGGTAATCCGTATTTGCT (site GCTACTGCTAG) | 1.64
70 | GCTACTGCATGGACCGGTTTTCCCGGTAATCCGTATTTGCT (site GCTACTGCTCG) | 0.00284
71 | GCTACTGCATGGACCGGTTTTCCCGGTAATCCGTATTTGCT (site GCTACTGCTGG) | 0
72 | GCTACTGCATGGACCGGTTTTCCCGGTAATCCGTATTTGCT (site GCTACTGCTTG) | 0
73 | GCTAGTGCATGGACCGGTTTTCCCGGTAATCCGTATTTGGT (site ACTAGTGCTAC) | 1.31
74 | GCTAGTGCATGGACCGGTTTTCCCGGTAATCCGTATTTGGT (site CCTAGTGCTAC) | 1.65
75 | GCTAGTGCATGGACCGGTTTTCCCGGTAATCCGTATTTGGT (site GCTAGTGCTAC) | 1.73
